Test results published in PubChem BioAssay (NCI).
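Five compound concentrations were applied to cells in 96-well plates for 48 hours; endpoints were derived by simple linear interpolation of the resulting dose-response curve. At the TGI there is no net growth.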

How the values were obtained:
Assay in all cases: growth of human tumour cells (NCI), 48 h
786-0 renal = tested on: 786-0 renal
A549 NSCLC = tested on: A549 NSCLC
ACHN renal = tested on: ACHN renal
CCRF-CEM leukemia = tested on: CCRF-CEM leukemia
HT29 colon = tested on: HT29 colon
M14 melanoma = tested on: M14 melanoma
RXF 393 renal = tested on: RXF 393 renal
SF-268 CNS = tested on: SF-268 CNS
SF-539 CNS = tested on: SF-539 CNS
SK-OV-3 ovarian = tested on: SK-OV-3 ovarian
SNB-75 CNS = tested on: SNB-75 CNS
SR leukemia = tested on: SR leukemia
UACC-62 melanoma = tested on: UACC-62 melanoma

SMILES	TGI (786-0 renal)	TGI (A549 NSCLC)	TGI (ACHN renal)	TGI (CCRF-CEM leukemia)	TGI (HT29 colon)	TGI (M14 melanoma)	TGI (RXF 393 renal)	TGI (SF-268 CNS)	TGI (SF-539 CNS)	TGI (SK-OV-3 ovarian)	TGI (SNB-75 CNS)	TGI (SR leukemia)	TGI (UACC-62 melanoma)
Cn1ncnc1CCc1ccccc1	> 100 µM	> 100 µM	> 100 µM	> 100 µM	> 100 µM	> 100 µM	> 100 µM	> 100 µM	> 100 µM	> 100 µM	> 100 µM	> 100 µM	> 100 µM
CC(C)C(/C=C/c1ccc(Br)cc1)=N\NC(N)=O	> 100 µM	> 100 µM	> 100 µM	> 100 µM	> 100 µM	> 100 µM	> 100 µM	> 100 µM	> 100 µM	> 100 µM	> 100 µM	> 100 µM	> 100 µM
O=c1cc(-c2ccccc2)oc2cc(OCCSCCCCCCCCCCSCCOc3ccc4c(=O)cc(-c5ccccc5)oc4c3)ccc12	> 100 µM	> 100 µM	> 100 µM	> 100 µM	> 100 µM	> 100 µM	> 100 µM	> 100 µM		> 100 µM	> 100 µM	> 100 µM	> 100 µM
CC(=O)NNc1nc(C)c(C(/C=C/c2ccc(Cl)cc2)=N/NC(=O)C[N+](C)(C)C)s1	> 100 µM	> 100 µM	> 100 µM	> 100 µM	> 100 µM	> 100 µM	> 100 µM	> 100 µM	> 100 µM	> 100 µM	> 100 µM		> 100 µM
C=CCN(C)CN(C)c1nc(N(C)C)nc(N(C)C)n1	> 100 µM	> 100 µM	> 100 µM	> 100 µM	> 100 µM	> 100 µM		> 100 µM	> 100 µM	> 100 µM	> 100 µM	> 100 µM	> 100 µM
COc1cc2c(cc1OC)C(=O)C(C1=C(SC(=N)N)C(=O)c3cc(OC)c(OC)cc31)C2 (stereo not drawn)	> 100 µM	> 100 µM	> 100 µM	> 100 µM	> 100 µM	> 100 µM		> 100 µM	> 100 µM	> 100 µM	> 100 µM	> 100 µM	> 100 µM
CSc1nc2[nH]c(=O)c(C)nc2c(=O)[nH]1	> 100 µM	> 100 µM	> 100 µM	> 100 µM	> 100 µM	> 100 µM	> 100 µM	> 100 µM		> 100 µM	> 100 µM	> 100 µM	> 100 µM
CC(=O)Nc1ccc(C(=O)NN2C(=O)C(Cl)C2c2ccccc2O)cc1 (stereo not drawn)	> 100 µM	> 100 µM	> 100 µM	> 100 µM	> 100 µM	> 100 µM	61 µM	> 100 µM	> 100 µM	> 100 µM	78.9 µM		> 100 µM
Cn1c2cc(O)cc(O)c2c(=O)c2c([N+](=O)[O-])cccc21	> 100 µM	> 100 µM	> 100 µM	> 100 µM	> 100 µM	> 100 µM	> 100 µM	> 100 µM	> 100 µM	> 100 µM	> 100 µM	> 100 µM	> 100 µM
CCOC(=O)c1ccc(-n2c(SCC)nc3sc(C)c(C)c3c2=O)cc1	> 100 µM	> 100 µM	> 100 µM	> 100 µM	> 100 µM	> 100 µM	> 100 µM	> 100 µM	> 100 µM	> 100 µM	> 100 µM	> 100 µM	> 100 µM
O=c1cc(-c2ccc(Cl)cc2)oc2cc(OCCCOc3ccc4c(=O)cc(-c5ccc(Cl)cc5)oc4c3)ccc12	> 100 µM	> 100 µM	> 100 µM	> 100 µM	> 100 µM	> 100 µM	> 100 µM	> 100 µM	> 100 µM	> 100 µM	> 100 µM	> 100 µM	> 100 µM
[N-]=[N+]=NC(CBr)c1cn([C@H]2C[C@H](O)[C@@H](CO)O2)c(=O)[nH]c1=O (stereo partly drawn)	> 100 µM	> 100 µM	> 100 µM	> 100 µM	> 100 µM	> 100 µM	> 100 µM		> 100 µM	> 100 µM	> 100 µM	> 100 µM	> 100 µM
COc1cc(/C=C2/C(=O)N(C(=O)c3ccc(Cl)cc3)N=C2C)cc(OC)c1OC	> 100 µM	> 100 µM	> 100 µM	> 100 µM	> 100 µM	> 100 µM	> 100 µM	> 100 µM	> 100 µM	> 100 µM			> 100 µM
COC(=O)[C@@]12OC[C@]34C([C@@H](O)C1O)[C@@]1(C)CC(=O)C(OC(=O)/C=C(/c5ccccc5)C(F)(F)F)=C(C)C1C[C@H]3OC(=O)[C@H](O)[C@H]42 (stereo partly drawn)	> 50 µM	> 50 µM	> 50 µM	> 50 µM	46.3 µM	36.9 µM	45.6 µM	> 50 µM	13 µM	> 50 µM	31.3 µM	19.4 µM	11.7 µM
